Data on four molecules can be found in patent publication US8470340B2, “Peptides presenting an epitope of a domain of factor H binding protein and methods of use” (priority 2008, dated 2013).

In assay [1] the test system is JAR 4. The experiment in a line: ELISA binding of native fHbp sequence peptides. Also on record: species or system murine. The settings on record: peptides from the native v.1 fHbp sequence.
In assay [2] the test system is JAR 4. The experiment in a line: ELISA binding of mAb to site-specific mutant recombinant v.1 fHbp. Further details: species or system murine. The method, then: Site-specific mutagenesis was used to test the role of amino acid residues involved in the JAR 4 anti-fHbp mAb epitope. Mutagenesis was performed using the QuikChange II kit (Stratagene) using 10 ng of plasmid template and the manufacturer's protocols. For testing residues putatively involved in mAb epitopes, mutagenesis reactions were performed on pET21-based plasmids encoding a wild-type fHbp gene. Site-specific mutagenesis was used to introduce the H26A and K27A substitution into the pET21 plasmid encoding v.1 fHbp from MC58. Mutant fHbp genes were confirmed by DNA sequencing as described for the wild-type plasmids, above.
Site-directed mutagenesis of residues 25, 26 and 27 was performed, each of which was individually changed to alanine in fHbp from the v.1 group (gene from MC58). These mutants were created using the non-signal containing sequence from strain MC58 (MVAAD . . . GLAAKQ) (SEQ ID NO:73), and are referred to as D25A, H26A and K27A, respectively. The amino acid sequences of the portions of the A domains of these mutants is provided in FIG. 7, Panel A. Results of the binding experiment between mutated fHbp and the various JAR mAbs are shown in FIG. 6.
Background: In an ELISA, binding on a coated surface is turned into a signal by an enzyme label.

With ADALTAPLDHKDK [SEQ ID NO: 32], in the assay with JAR 4 [1], the “binding to JAR 4 by ELISA” value was “no detectable binding”.

For DHKDKGLQSLTLD [SEQ ID NO: 33], the “binding to JAR 4 by ELISA” value in the assay with JAR 4 [1] is on record as “no detectable binding”.

B1: H26A: recombinant v.1 fHbp (gene from MC58) with residue 26 changed to alanine (protein)
chain: CSSGGGGVAADIGAGLADALTAPLDAKDKGLQSLTLDQSVRKNEKLKLAAQGAEKTYGNGDSLNTGKLKNDKVSRFDFIRQIEVDGQLITLESGEFQVYKQSHSALTAFQTEQIQDSEHSGKMVAKRQFRIGDIAGEHTSFDKLPEGGRATYRGTAFGSDDAGGKLTYTIDFAAKQGNGKIEHLKSPELNVDLAAADIKPDGKRHAVISGSVLYNQAEKGSYSLGIFGGKAQEVAGSAEVKTVNGIRHIGLAAKQHHHHHH
For B1, the “decrease in JAR 4-reactivity compared with wild-type recombinant fHbp” value with JAR 4 [2] (v.1 fHbp (gene from MC58) alanine mutants) was “approximately 10 fold”.

B2: K27A: recombinant v.1 fHbp (gene from MC58) with residue 27 changed to alanine (protein)
chain: CSSGGGGVAADIGAGLADALTAPLDHADKGLQSLTLDQSVRKNEKLKLAAQGAEKTYGNGDSLNTGKLKNDKVSRFDFIRQIEVDGQLITLESGEFQVYKQSHSALTAFQTEQIQDSEHSGKMVAKRQFRIGDIAGEHTSFDKLPEGGRATYRGTAFGSDDAGGKLTYTIDFAAKQGNGKIEHLKSPELNVDLAAADIKPDGKRHAVISGSVLYNQAEKGSYSLGIFGGKAQEVAGSAEVKTVNGIRHIGLAAKQHHHHHH
Consider B2, for which the “JAR 4 binding compared with wild-type recombinant fHbp” value in the assay on JAR 4 [2] (v.1 fHbp (gene from MC58) alanine mutant) was “eliminated detectable JAR 4 binding”.
